The subject of assay [1] is Escherichia coli D21f2tolC. As to the kind of experiment: MIC, spiral gradient endpoint assay, E. coli D21f2tolC. In kind it is cell-based. Particulars: Escherichia coli, D21F2TOLC, read-out: MIC E. coli D21f2toIC.
Another assay relates to Burkholderia mallei CHN7. As to the kind of experiment: microbe, parasite or virus in culture. It counts as cell-based. Particulars: Burkholderia mallei, CHN7, read-out: MIC B. mallei CHN7.
A further assay deals with Brucella melitensis 16M. Nature of the assay: microbe, parasite or virus in culture. Particulars: Brucella melitensis, 16M, read-out: MIC B. melitensis 16M. It counts as cell-based.
Assay [2] deals with Acinetobacter baumannii ATCC 19606. Nature of the assay: MIC, spiral gradient endpoint assay, A. baumannii. In kind it is cell-based. Particulars: ATCC19606; Acinetobacter baumannii ATCC 19606.
Assay [3] concerns Staphylococcus aureus ATCC 12600. Nature of the assay: MIC, spiral gradient endpoint assay, S. aureus ATCC 12600. It counts as cell-based. Particulars: ATCC12600; Staphylococcus aureus ATCC 12600.
Assay [4] has as its system Francisella tularensis SCHU4. As to the kind of experiment: microbe, parasite or virus in culture. It counts as cell-based. The conditions noted are these: Francisella tularensis, SCHU4, read-out: MIC F. tularensis SCHU4.
In another assay the test system is Yersinia pestis C092. Nature of the assay: microbe, parasite or virus in culture. In kind it is cell-based. The conditions noted are these: Yersinia pestis, C092, read-out: MIC Y. pestis C092.
The test system of assay [5] is Mycobacterium tuberculosis H37Rv. As to the kind of experiment: MIC, microplate Alamar Blue assay, M. tuberculosis. It counts as cell-based. (In general: Alamar Blue is a resazurin reagent that responds to reducing activity.)
Assay [6] concerns Burkholderia pseudomallei Human/Blood/OH/US/1994. As to the kind of experiment: microbe, parasite or virus in culture. It counts as cell-based. The conditions noted are these: Burkholderia pseudomallei, read-out: MIC B. pseudomallei Human/Blood/OH.
Assay [7] addresses E. coli RNA polymerase σ^70 holoenzyme (Escherichia coli, UniProt P0A8T7+P0A8V2). As to the kind of experiment: Fluorescence-detected RNA polymerase assay, E. coli RNA polymerase. It counts as biochemical. The conditions noted are these: read-out: IC50 E. coli RNAP.
Assay [8] relates to Bacillus anthracis Vollum 1b. Nature of the assay: microbe, parasite or virus in culture. In kind it is cell-based. Particulars: Bacillus anthracis, VOLLUM1B, read-out: MIC B. anthracis Vollum-1b.

The structures appear in SMILES notation. Bounds are passed on as bounds.

Broadly, the IC50 is the point on the concentration scale where inhibition reaches its midpoint.

Chain of E. coli RNA polymerase σ^70 holoenzyme (P0A8T7 whole entry): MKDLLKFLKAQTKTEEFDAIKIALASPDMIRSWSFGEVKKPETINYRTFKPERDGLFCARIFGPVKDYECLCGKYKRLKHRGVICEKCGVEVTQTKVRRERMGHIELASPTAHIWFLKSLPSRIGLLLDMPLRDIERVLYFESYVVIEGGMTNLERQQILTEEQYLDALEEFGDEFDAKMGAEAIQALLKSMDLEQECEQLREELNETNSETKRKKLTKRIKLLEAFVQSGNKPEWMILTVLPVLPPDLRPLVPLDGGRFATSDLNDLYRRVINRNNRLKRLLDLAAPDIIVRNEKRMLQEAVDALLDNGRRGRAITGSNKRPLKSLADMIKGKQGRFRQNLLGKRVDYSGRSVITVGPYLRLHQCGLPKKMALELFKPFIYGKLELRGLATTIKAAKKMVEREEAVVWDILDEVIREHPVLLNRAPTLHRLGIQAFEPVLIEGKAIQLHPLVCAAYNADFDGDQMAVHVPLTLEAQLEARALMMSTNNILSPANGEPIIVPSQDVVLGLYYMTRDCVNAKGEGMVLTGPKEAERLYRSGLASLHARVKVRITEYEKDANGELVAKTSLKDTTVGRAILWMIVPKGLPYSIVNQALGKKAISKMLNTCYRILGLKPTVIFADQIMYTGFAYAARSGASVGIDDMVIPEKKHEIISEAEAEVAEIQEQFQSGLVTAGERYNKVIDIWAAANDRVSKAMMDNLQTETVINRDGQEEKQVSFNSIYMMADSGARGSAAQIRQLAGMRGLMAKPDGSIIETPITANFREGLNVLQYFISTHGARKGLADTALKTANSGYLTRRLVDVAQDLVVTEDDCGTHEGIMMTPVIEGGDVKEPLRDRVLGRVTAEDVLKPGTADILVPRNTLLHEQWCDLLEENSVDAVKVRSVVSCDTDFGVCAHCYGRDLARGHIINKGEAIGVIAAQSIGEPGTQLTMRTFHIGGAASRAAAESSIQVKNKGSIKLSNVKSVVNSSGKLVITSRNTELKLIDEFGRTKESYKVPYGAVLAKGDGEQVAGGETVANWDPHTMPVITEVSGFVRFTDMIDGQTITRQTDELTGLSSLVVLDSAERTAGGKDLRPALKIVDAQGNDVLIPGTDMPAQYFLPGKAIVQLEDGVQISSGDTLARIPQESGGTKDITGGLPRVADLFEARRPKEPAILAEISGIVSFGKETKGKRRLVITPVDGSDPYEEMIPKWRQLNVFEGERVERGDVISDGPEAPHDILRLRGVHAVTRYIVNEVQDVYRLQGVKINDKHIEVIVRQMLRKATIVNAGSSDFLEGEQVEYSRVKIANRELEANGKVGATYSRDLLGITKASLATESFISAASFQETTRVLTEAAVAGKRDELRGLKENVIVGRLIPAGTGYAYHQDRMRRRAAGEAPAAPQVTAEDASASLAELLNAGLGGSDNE
Chain of E. coli RNA polymerase σ^70 holoenzyme (P0A800 whole entry, further chain): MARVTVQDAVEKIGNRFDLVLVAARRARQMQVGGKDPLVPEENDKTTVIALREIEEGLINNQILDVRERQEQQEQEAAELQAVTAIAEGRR
Chain of E. coli RNA polymerase σ^70 holoenzyme (P0A8V2 whole entry): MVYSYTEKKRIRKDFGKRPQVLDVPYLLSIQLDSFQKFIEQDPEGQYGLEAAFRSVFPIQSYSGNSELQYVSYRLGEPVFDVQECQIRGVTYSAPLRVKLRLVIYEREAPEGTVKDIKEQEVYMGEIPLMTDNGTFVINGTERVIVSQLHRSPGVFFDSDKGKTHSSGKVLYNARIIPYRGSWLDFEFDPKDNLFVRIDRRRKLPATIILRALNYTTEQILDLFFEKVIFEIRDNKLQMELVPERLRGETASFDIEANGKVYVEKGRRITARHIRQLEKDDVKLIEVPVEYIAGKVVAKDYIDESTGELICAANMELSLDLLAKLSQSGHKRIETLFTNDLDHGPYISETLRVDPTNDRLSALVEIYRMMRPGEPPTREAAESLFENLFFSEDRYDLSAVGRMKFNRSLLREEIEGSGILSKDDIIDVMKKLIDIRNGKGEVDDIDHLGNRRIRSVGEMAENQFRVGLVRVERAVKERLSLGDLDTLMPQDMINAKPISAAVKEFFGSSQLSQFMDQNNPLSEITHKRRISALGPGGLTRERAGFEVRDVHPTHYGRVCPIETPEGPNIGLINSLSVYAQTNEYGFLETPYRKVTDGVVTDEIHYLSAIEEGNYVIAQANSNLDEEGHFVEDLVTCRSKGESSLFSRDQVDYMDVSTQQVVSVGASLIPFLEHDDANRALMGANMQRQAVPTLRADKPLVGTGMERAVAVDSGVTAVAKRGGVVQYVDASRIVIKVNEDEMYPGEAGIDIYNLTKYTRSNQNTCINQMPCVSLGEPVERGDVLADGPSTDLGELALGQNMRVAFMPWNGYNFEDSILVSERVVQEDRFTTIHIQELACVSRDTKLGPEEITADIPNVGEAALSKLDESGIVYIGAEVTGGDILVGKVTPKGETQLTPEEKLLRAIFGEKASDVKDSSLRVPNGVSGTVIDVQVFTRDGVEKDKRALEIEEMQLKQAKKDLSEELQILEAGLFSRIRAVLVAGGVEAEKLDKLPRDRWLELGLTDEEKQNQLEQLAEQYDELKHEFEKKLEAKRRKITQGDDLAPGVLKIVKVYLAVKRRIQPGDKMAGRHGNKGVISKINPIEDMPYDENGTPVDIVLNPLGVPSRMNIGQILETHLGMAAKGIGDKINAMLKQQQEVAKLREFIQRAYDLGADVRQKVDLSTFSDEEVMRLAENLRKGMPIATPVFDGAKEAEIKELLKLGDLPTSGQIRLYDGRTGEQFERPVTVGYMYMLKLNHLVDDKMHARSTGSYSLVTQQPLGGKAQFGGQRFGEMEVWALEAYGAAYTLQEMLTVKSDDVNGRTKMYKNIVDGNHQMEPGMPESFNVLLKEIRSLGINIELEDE
Chain of E. coli RNA polymerase σ^70 holoenzyme (P00579 whole entry, further chain): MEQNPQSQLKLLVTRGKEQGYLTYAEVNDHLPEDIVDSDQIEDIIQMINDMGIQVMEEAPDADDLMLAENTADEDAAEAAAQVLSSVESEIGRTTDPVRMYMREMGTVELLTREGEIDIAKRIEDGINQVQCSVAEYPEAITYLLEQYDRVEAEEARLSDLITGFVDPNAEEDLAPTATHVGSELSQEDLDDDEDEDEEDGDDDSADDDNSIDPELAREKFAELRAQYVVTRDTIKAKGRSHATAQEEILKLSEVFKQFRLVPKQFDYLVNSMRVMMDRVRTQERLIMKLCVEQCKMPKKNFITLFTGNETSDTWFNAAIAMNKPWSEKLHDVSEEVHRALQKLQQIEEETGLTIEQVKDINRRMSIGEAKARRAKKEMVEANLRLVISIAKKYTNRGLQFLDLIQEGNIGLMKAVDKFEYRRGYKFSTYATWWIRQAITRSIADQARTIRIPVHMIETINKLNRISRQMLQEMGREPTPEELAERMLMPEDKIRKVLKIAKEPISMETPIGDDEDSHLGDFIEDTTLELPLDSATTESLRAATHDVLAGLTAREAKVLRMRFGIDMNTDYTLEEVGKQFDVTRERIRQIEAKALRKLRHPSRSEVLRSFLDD
Chain of E. coli RNA polymerase σ^70 holoenzyme (P0A7Z4 whole entry, further chain): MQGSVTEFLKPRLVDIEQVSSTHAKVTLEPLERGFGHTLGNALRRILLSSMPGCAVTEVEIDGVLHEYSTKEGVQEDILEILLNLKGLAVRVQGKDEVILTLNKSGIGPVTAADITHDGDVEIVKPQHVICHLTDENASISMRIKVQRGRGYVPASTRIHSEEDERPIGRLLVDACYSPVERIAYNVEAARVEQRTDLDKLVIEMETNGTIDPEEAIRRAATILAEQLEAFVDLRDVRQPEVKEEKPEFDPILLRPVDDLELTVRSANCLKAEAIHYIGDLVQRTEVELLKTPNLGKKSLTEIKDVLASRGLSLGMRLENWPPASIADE

In the case of `CCCCc1ccc(C=CC(=O)c2c(O)cc(C(C)CC/C=C/NC(=O)OC)oc2=O)s1` (mixture of isomers) [APY36, methyl (E)-5-(3-((E/Z)-3-(5-butylthiophen-2-yl)acryloyl)-4-hydroxy-2-oxo-2H-pyran-6-yl)hex-1-enylcarbamate], the MIC in assay [1] is 0.7 µg/mL; with Burkholderia mallei CHN7 it was greater than 50 µg/mL; with Brucella melitensis 16M, greater than 50 µg/mL; in assay [2], greater than 40 µg/mL; in [3], greater than 40 µg/mL; in assay [4], 6 µg/mL. Besides, the MIC with Yersinia pestis C092 is greater than 50 µg/mL; in [5], 30 µg/mL; in [6] it was greater than 50 µg/mL; in assay [8], 6 µg/mL. In addition, in assay [7], the IC50 was found to be 300 nM.
Regarding `COC(=O)N/C=C/CCC(C)c1cc(O)c(C(=O)C(C)=Cc2ccc(OCCC(C)(C)C)cc2)c(=O)o1` (mixture of isomers) [APY48, methyl (E)-5-(3-((E/Z)-3-(4-(3,3-dimethylbutoxy)phenyl)-2-methylacryloyl)-4-hydroxy-2-oxo-2H-pyran-6-yl)hex-1-enylcarbamate], the MIC in the assay on Burkholderia mallei CHN7 is 50 µg/mL; in the assay with Brucella melitensis 16M, 6 µg/mL; in assay [3], 10 µg/mL; in assay [4] it was 10 µg/mL; in the assay with Yersinia pestis C092, greater than 50 µg/mL; in assay [5], 10 µg/mL. Moreover, the results for the MIC in assay [6] and in assay [8] were greater than 50 µg/mL and 6 µg/mL, respectively. Also, the IC50 in [7] came out at 900 nM.
`COC(=O)N/C=C/CCC(C)c1cc(O)c(C(=O)C(C)=Cc2ccc(OCC3CCCC3)cc2)c(=O)o1` (mixture of isomers) [APY52]: the MIC in assay [1] was 0.4 µg/mL; with Burkholderia mallei CHN7, 50 µg/mL; in the assay with Brucella melitensis 16M, 3 µg/mL; in [2], greater than 40 µg/mL; in [3], 4 µg/mL; in assay [4], 30 µg/mL. The figures for the MIC in assay [5], in assay [6] and in [8] were 30 µg/mL, greater than 50 µg/mL and 2 µg/mL, respectively. The IC50 in assay [7] came to 2000 nM.
On to `COC(=O)N/C=C/CCC(C)c1cc(O)c(C(=O)C(C)=Cc2ccc(OCC(C)C)cc2)c(=O)o1` (mixture of isomers) [APY53, methyl (E)-5-(4-hydroxy-3-((E/Z)-3-(4-isobutoxyphenyl)-2-methacryloyl)-4-hydroxy-2-oxo-2H-pyran-6-yl)hex-1-enylcarbamate], for which the MIC in [1] was 0.4 µg/mL; in the assay on Burkholderia mallei CHN7, greater than 50 µg/mL; in the assay on Brucella melitensis 16M, 10 µg/mL; in assay [2] it was greater than 40 µg/mL; in assay [3], 2 µg/mL; in assay [4], 50 µg/mL. Further, the MIC was 6 µg/mL in assay [5], greater than 50 µg/mL in assay [6] and 3 µg/mL in [8]. Further, the IC50 in assay [7] amounted to 2000 nM.
For the compound `COC(=O)N/C=C/CCC(C)c1cc(O)c(C(=O)C(C)=Cc2ccc(OCC(C)(C)C)cc2)c(=O)o1` (mixture of isomers) [APY55, methyl (E)-5-(4-hydroxy-3-((E/Z)-2-methyl-3-(4-(neopentyloxy)phenyl)acryloyl)-2-oxo-2H-pyran-6-yl)hex-1-enylcarbamate], the MIC in assay [1] was 0.7 µg/mL; with Burkholderia mallei CHN7, 50 µg/mL; with Brucella melitensis 16M, 30 µg/mL; in [2] it was greater than 40 µg/mL; in assay [3], 10 µg/mL; in assay [4] it was 30 µg/mL. Besides, the MIC in assay [5] is 10 µg/mL; in assay [6], greater than 50 µg/mL; in assay [8], 2 µg/mL. Moreover, the IC50 in assay [7] is 40 nM.
Regarding `COC(=O)N/C=C/CCC(C)c1cc(O)c(C(=O)C(C)=Cc2ccc(CCC(C)(C)C)s2)c(=O)o1` (mixture of isomers) [APY56, methyl (E)-5-(4-hydroxy-5-((E/Z)-2-methyl-3-(5-(3,3-dimethylbutyl)thiophen-2-yl)acryloyl)-6-oxo-6H-pyran-2-yl)hex-1-enylcarbamate], the MIC in assay [1] came out at 0.2 µg/mL; in the assay on Burkholderia mallei CHN7 it was 3 µg/mL; with Brucella melitensis 16M it was 3 µg/mL; in assay [2], 10 µg/mL; in [3] it was 0.7 µg/mL; in assay [4] it was 6 µg/mL. Also, the MIC in assay [5] was determined as 10 µg/mL; in assay [6], 6 µg/mL; in assay [8], 0.2 µg/mL. In assay [7], the IC50 was found to be 7 nM.
With `CCCc1ccc(C=C(C)C(=O)c2c(O)cc(C(C)CC/C=C/NC(=O)OC)oc2=O)s1` (mixture of isomers) [APY58, methyl (E)-5-(4-hydroxy-5-((E/Z)-2-methyl-3-(5-propylthiophen-2-yl)acryloyl)-6-oxo-6H-pyran-2-yl)hex-1-enylcarbamate], the MIC in [1] is 0.2 µg/mL; in the assay on Burkholderia mallei CHN7, 50 µg/mL; in the assay with Brucella melitensis 16M, greater than 50 µg/mL; in assay [2] it was greater than 40 µg/mL; in assay [3] it was 1 µg/mL; in [4], 50 µg/mL. Further, the MIC stood at 10 µg/mL in assay [5], 50 µg/mL in assay [6] and 10 µg/mL in assay [8]. Also, in assay [7], the IC50 came to 80 nM.
Regarding `CCCCCc1ccc(C=C(C)C(=O)c2c(O)cc(C(C)CC/C=C/NC(=O)OC)oc2=O)s1` (mixture of isomers) [APY59, methyl (E)-5-(4-hydroxy-5-((E/Z)-2-methyl-3-(5-pentylthiophen-2-yl)acryloyl)-6-oxo-6H-pyran-2-yl)hex-1-enylcarbamate], the MIC in assay [1] amounted to 0.2 µg/mL; in the assay with Burkholderia mallei CHN7, 6 µg/mL; with Brucella melitensis 16M, 6 µg/mL; in assay [2], 7 µg/mL; in [3] it was 0.3 µg/mL; in assay [4] it was 10 µg/mL. The figures for the MIC in assay [5], in assay [6] and in assay [8] were 30 µg/mL, 10 µg/mL and 2 µg/mL, respectively. Also, in assay [7], the IC50 was 10 nM.
For the compound `CCc1ccc(C=C(C)C(=O)c2c(O)cc(C(C)CC/C=C/NC(=O)OC)oc2=O)s1` (mixture of isomers) [APY64, methyl (E)-5-(5-((E/Z)-3-(5-ethylthiophen-2-yl)-2-methylacryloyl)-4-hydroxy-6-oxo-6H-pyran-2-yl)hex-1-enylcarbamate], the MIC in assay [1] is 0.8 µg/mL; in the assay with Burkholderia mallei CHN7, greater than 50 µg/mL; in the assay on Brucella melitensis 16M it was 10 µg/mL; in assay [2], greater than 40 µg/mL; in [3], 9 µg/mL; in [4] it was 50 µg/mL. Moreover, the MIC in assay [5] is 30 µg/mL; in [6], greater than 50 µg/mL; in assay [8], 50 µg/mL. For the same compound, the IC50 in [7] worked out at 200 nM.
`CCCCc1ccc(C=C(C)C(=O)c2c(O)cc(C(C)CCCCNC(=O)OC)oc2=O)s1` (mixture of isomers) [APY67, methyl 5-(5-((E/Z)-3-(5-butylthiophen-2-yl)-2-methylacryloyl)-4-hydroxy-6-oxo-6H-pyran-2-yl)hexylcarbamate]: the MIC in assay [1] is 0.5 µg/mL; in the assay with Burkholderia mallei CHN7, greater than 50 µg/mL; with Brucella melitensis 16M, 10 µg/mL; in [2] it was greater than 40 µg/mL; in assay [3], 5 µg/mL; in [4], 50 µg/mL. Further, the MIC in [5] is 50 µg/mL; in [6], greater than 50 µg/mL; in assay [8] it was 30 µg/mL. In addition, the IC50 in assay [7] amounted to 1000 nM.
As to `CCc1ccc(C=C(C)C(=O)c2c(O)cc(C(C)CC/C=C/NC(=O)OC)oc2=O)cc1` (mixture of isomers) [APY70, methyl (E)-5-(5-((E/Z)-3-(4-ethylphenyl)-2-methylacryloyl)-4-hydroxy-6-oxo-6H-pyran-2-yl)hex-1-enylcarbamate], the MIC in [1] was 1 µg/mL; in the assay with Burkholderia mallei CHN7, greater than 50 µg/mL; in the assay with Brucella melitensis 16M it was 30 µg/mL; in [2], greater than 40 µg/mL; in assay [3], 20 µg/mL; in assay [4] it was greater than 50 µg/mL. In addition, the MIC was 30 µg/mL in [5], greater than 50 µg/mL in assay [6] and 50 µg/mL in assay [8]. Also, in [7], the IC50 was greater than 6000 nM.
As for `COC(=O)N/C=C/CCC(C)c1cc(O)c(C(=O)C(C)=Cc2ccc(CCC(F)(F)F)cc2)c(=O)o1` (mixture of isomers) [APY74, methyl (E)-5-(5-((E/Z)-3-(4-(3,3,3-trifluoropropyl)phenyl)-2-methylacryloyl)-4-hydroxy-6-oxo-6H-pyran-2-yl)hex-1-enylcarbamate], the MIC in [1] was 0.2 µg/mL; in the assay on Burkholderia mallei CHN7, greater than 50 µg/mL; with Brucella melitensis 16M it was 10 µg/mL; in assay [2], greater than 40 µg/mL; in assay [3], 2 µg/mL; in [4], 50 µg/mL. The MIC in [5] was 10 µg/mL; in [6] it was greater than 50 µg/mL; in assay [8], 10 µg/mL. In assay [7], the IC50 stood at 40 nM.
For the compound `COC(=O)N/C=C/CCC(C)c1cc(O)c(C(=O)C(C)=Cc2ccc(CCCCCC(F)(F)F)s2)c(=O)o1` (mixture of isomers) [APY82, methyl ((1E)-5-(4-hydroxy-3-(2-methyl-3-(5-(6,6,6-trifluorohexyl)thiophen-2-yl)acryloyl)-2-oxo-2H-pyran-6-yl)hex-1-en-1-yl)carbamate], the MIC in assay [1] is 0.07 µg/mL; in the assay with Burkholderia mallei CHN7, 6 µg/mL; in the assay on Brucella melitensis 16M, 2 µg/mL; in [2] it was 20 µg/mL; in [3] it was 10 µg/mL; in assay [4], 10 µg/mL. The figures for the MIC in assay [5], in [6] and in [8] were greater than 50 µg/mL, 6 µg/mL and 3 µg/mL, respectively. The IC50 in assay [7] is 5 nM.

The record behind these values is patent publication US9592221B2, “Antibacterial agents: aryl myxopyronin derivatives” (priority 2012, dated 2017).
